The values that follow come from paper PMC7463632, “Conformational Restriction of Histamine with a Rigid Bicyclo[3.1.0]hexane Scaffold Provided Selective H3 Receptor Ligands” (Molecules, 2020).

Test [1] addresses T1, human histamine H3 receptor (Homo sapiens, UniProt Q9Y5N1).
T1 construct: purchased Euroscreen (Brussels, Belgium); host or cells: CHO cells (membrane preparations)
To be noted: cited from earlier work; for Ki: human H3R, [3H]Nα-methylhistamine, mean ± SEM; for Selectivity Ratio (H4/H3): ratio of Ki H4 / Ki H3, human receptors.

For test [2], the target named is T2, human histamine H4 receptor (Homo sapiens, UniProt Q9H3N8).
T2 construct: purchased Euroscreen (Brussels, Belgium); host or cells: CHO cells (membrane preparations)
T2 sequence (Q9H3N8 whole entry): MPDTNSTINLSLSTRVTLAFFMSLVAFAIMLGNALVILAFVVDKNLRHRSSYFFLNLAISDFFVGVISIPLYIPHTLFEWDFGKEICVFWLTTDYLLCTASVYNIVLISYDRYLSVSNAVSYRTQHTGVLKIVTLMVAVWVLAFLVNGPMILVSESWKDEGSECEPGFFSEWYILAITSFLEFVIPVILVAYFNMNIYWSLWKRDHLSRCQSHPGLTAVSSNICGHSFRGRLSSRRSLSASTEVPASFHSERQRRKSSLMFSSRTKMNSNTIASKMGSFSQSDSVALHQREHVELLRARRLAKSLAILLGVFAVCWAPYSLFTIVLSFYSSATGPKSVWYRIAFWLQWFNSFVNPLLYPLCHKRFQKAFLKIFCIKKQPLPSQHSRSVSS
Also on record: method as in PMID 16942032. The settings on record: human H4R, [3H]histamine; mean ± SEM; cited from earlier work.

In test [3] the target is T1, human histamine H3 receptor. Nature of the test: Radioligand binding assay with [3H]Nα-methylhistamine on CHO cell membranes expressing recombinant human H3 receptor. The settings on record: for Ki: human H3R, CHO cell membranes, [3H]Nα-methylhistamine, mean ± SEM (n = 3–5); for Selectivity Ratio (H4/H3): ratio of Ki H4 / Ki H3, human receptors. As to the method: (§1) The binding affinities of 6, 7, ent-6, and ent-7 for the human H3R subtype with [^3H]N^α-methylhistamine and the human H4R subtype with [^3H]histamine were evaluated using cell membranes expressing human H3R or H4R according to the previously reported method, and the results are summarized in Table 1.
(§2) The protocol of the biological assay was according to the previous report. The membrane preparations of Chinese hamster ovary (CHO) cells, which expressed recombinant human histamine H3 or H4 receptors, were purchased from Euroscreen (Brussels, Belgium). The binding assay of the H3 and H4 receptors was performed using [^3H]N^α-methylhistamine (Perkin-Elmer, Boston, MA) and [^3H]histamine (Perkin-Elmer), respectively. Briefly, the membrane preparations (7.5–15 µg protein) were incubated with different concentrations of [^3H]N^α-methylhistamine (0.1–3 nM) and of [^3H]histamine(1–30 nM) for 30 min at 25 °C in 50 mM Tris/5 mM MgCl2 buffer (pH 7.4). The reaction was terminated by rapid filtration (Cell Harvester, Brandel Co., Gaithersburg, MD) through Whatman GF/B glass fiber filters presoaked for 2 h in 0.5% polyethyleneimine, and the filters were rinsed three times with an ice-cold buffer (2 mL). Membrane-bound radioactivity was extracted from filters overnight in scintillation fluid (toluene, 2 L; Triton X-100, 1 L; 2,5-diphenyloxazole, 15 g; 1,4-bis[2-(5-phenyloxazolyl)]benzene, 0.3 g) and determined in a liquid scintillation counter. […] The apparent dissociation constants (Kd) for each radioligand was determined by nonlinear regression analysis of the curve generated by plotting specific binding concentration versus concentration of the radioligand with GraphPad Prism (GraphPad Software, San Diego, CA) using a one-site binding curve equation. […] The inhibition constant, Ki, was calculated from the equation, Ki = IC50/(1 + L/Kd), where L equals the concentration of each radioligand. The data were presented as mean ± SE (n = 3–5).

Test [4] has as its target T2, human histamine H4 receptor. Nature of the test: Radioligand binding assay with [3H]histamine on CHO cell membranes expressing recombinant human H4 receptor. To be noted: human H4R, mean ± SEM (n = 3–5). As to the method: as §1, §2

The structures appear in SMILES notation. Where “and” joins values, the source holds several entries; their conditions need not be identical. Equal values may be shown once. Read-outs that look alike come from different tables or passages of the source.

T1 sequence (Q9Y5N1 whole entry): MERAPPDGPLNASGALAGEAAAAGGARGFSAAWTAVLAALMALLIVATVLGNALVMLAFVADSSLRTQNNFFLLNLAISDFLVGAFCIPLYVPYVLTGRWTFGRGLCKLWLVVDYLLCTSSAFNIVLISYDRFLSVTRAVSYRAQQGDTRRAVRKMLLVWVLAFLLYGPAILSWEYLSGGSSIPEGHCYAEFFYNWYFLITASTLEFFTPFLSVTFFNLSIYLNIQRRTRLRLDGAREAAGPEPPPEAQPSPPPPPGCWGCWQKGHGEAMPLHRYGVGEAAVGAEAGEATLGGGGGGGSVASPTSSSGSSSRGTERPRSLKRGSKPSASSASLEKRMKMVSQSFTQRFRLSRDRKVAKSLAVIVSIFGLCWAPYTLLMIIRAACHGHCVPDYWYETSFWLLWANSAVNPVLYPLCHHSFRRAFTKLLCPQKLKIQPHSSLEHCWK

In general, Ki refers to the dissociation constant of the complex between target and ligand, obtained from inhibition or displacement. Consider `Clc1ccc(CNCC[C@@H]2C[C@@H]2c2cnc[nH]2)cc1` (single isomer, unassigned) [ent-3], for which, in test [1], the Ki was 8.4 ± 1.5 nM and the “Selectivity Ratio (H4/H3)” value is on record as 0.9. Further, the inhibition constant Ki in test [2] was 7.6 ± 0.4 nM.
Consider `Clc1ccc(CNC[C@@H]2CC[C@@]3(c4c[nH]cn4)C[C@@H]23)cc1` (single isomer, unassigned) [ent-6], for which, in test [3], the Ki amounted to 21.9 ± 6 nM and the “Selectivity Ratio (H4/H3)” value is reported as 19. Moreover, in test [4], the Ki is 416 ± 155 nM.
As for `Clc1ccc(CNC[C@H]2CC[C@@]3(c4c[nH]cn4)C[C@@H]23)cc1` (single isomer, unassigned) [ent-7], in test [3], the Ki was 14.8 ± 3.8 nM and the “Selectivity Ratio (H4/H3)” value was found to be 4.7. Besides, the inhibitory constant (Ki) in test [4] stood at 69.2 ± 21 nM.
Turning to `Clc1ccc(CNCCC2CC2c2c[nH]cn2)cc1` (stereo not shown) [Compound 3], in test [1], the inhibition constant (Ki) was 3.6 ± 0.4 nM; the “Selectivity Ratio (H4/H3)” value is 10.3 and 10. For the same compound, the inhibition constant Ki in test [2] is 37.2 ± 2.7 nM.
Take `CC[C@@H](CNCc1ccc(Cl)cc1)[C@H]1C[C@@H]1c1c[nH]cn1` [Compound 4]: in test [3], the “Selectivity Ratio (H4/H3)” value stood at 1.3. The inhibitory constant (Ki) in test [4] was 9 ± 1 nM.
As for `CC[C@H](CNCc1ccc(Cl)cc1)[C@H]1C[C@@H]1c1c[nH]cn1` [Compound 5], in test [3] (H3R Ki of 5 compared with 3), the “fold lower H3R binding affinity than that of 3” value is “more than 15 fold”. Further, in test [3], the “Selectivity Ratio (H4/H3)” value came to 1.2. Besides, the Ki in test [4] stood at 76.5 ± 14 nM.
Regarding `Cl.Cl.Clc1ccc(CNC[C@H]2CC[C@]3(c4c[nH]cn4)C[C@H]23)cc1` [Compound 6, (1S,4S,5R)-4-[N-(4-Chlorobenzyl)aminomethyl]-1-(1H-imidazol-4-yl)bicyclo[3.1.0]hexane dihydrochloride], in test [3], the inhibition constant Ki was found to be 31.6 ± 8.2 nM and the “Selectivity Ratio (H4/H3)” value came out at 16. Besides, the Ki in test [4] was 501 ± 201 nM.
`Clc1ccc(CNC[C@@H]2CC[C@]3(c4c[nH]cn4)C[C@H]23)cc1` [Compound 7]: the Ki is 5.6 ± 1.6 nM in test [3] and 602 ± 343 nM in test [4].
